Assay results taken from patent publication US20030134901A1, “Lipoxin compounds and their use in treating cell proliferative disorders” (priority 1993, published 2003).

How the values were obtained:
[1] = system: peripheral blood monocytes; assay: LXA4 metabolism by peripheral blood monocytes; type: in vitro ADME, human; settings: within 30 s
Protocol: Human PMN were obtained from healthy volunteers by gradient centrifugation of heparinized fresh venous blood (Böyum, A. ([…]) Scand. J. Clin. Lab. Invest. 21:77). HL-60 cells were seeded in RPMI supplemented with penicillin (100 U/ml), streptomycin (100 μ/ml), fetal bovine serum (10%) (Hyclone, Logan, Utah) and incubated (37° C. with 5% CO2 atmosphere) in plastic 250 ml flasks. Individual flasks containing […] HL-60 cells/ml were incubated in the presence or absence of phorbol 12-myristate 13-acetate (PMA) (10 or 16 nM, 24-27 h) and adherence was monitored for induction of macrophage-like phenotype as in Collins, S. J. (1987) Blood 70:1233. […]
Incubations with eicosanoids were stopped with cold methanol containing either PGB2 or 5-HETE as internal standards (5-HETE was used when 15-oxo-ETE was quantified). […] Formation of 15-oxo-ETE by 100,000 g supernatants (cf. Agins, A. P. et al. (1987) Agents Actions 21:397; Xun, C-Q. et al.(1991) Biochem. J. 279:553; and Sok, D-E. et al. (1988) Biochem. Biophys. Res. Commun. 156:524) was quantified after RP-HPLC using an ODS column (4.6 mm×25 cm) eluted with methanol/H2O/acetic acid (70:30:0.01, v/v/v) monitored at 280 nm with a flow rate of 1 ml/min. […] On-line spectra were recorded using a diode array detector (Hewlett-Packard 1040M series II) equipped with HPLC^3D ChemStation software (DOS series). […]

[2] = molecular target: T1, LTB4 specific binding sites of HL-60 cells (Homo sapiens, UniProt Q15722); assay: 3H-LTB4 specific binding to HL-60 cells; settings: competitor 300 nM, differentiated HL-60 cells
T1 construct: endogenous in cells; host or cells: differentiated HL-60 cells, intact
T1 sequence (Q15722 whole entry): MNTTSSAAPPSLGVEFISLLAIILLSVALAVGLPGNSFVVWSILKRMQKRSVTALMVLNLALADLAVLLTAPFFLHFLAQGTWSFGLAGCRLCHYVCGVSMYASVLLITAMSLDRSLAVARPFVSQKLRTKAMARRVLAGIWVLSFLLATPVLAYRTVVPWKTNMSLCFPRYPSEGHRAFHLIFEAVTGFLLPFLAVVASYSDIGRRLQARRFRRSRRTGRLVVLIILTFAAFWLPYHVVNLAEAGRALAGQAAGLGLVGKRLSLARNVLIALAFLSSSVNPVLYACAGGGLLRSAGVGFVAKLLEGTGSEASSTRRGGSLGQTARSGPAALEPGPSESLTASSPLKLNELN

[3] = system: PLD activity in human PMN; assay: PLD activity (PEt formation) in PMN; type: cell-based; settings: biphasic concentration dependence
Protocol: PMN, platelet and RBC isolation from peripheral blood. Human PMN were obtained by the modified Böyum method (Böyum, A. (1968) Scan. J. Clin. Lab. Invest. 21:77) from fresh heparinized blood after venipuncture of healthy normal volunteers. Suspensions in PBS were monitored for cell number and viability by their ability to exclude trypan blue both exceeding 98%. Red blood cells were obtained from 10 ml of heparinized blood after three centrifugations in PBS (2,500 rpm, 10 min at 21° C.). Blood drawn in acidic citrate dextrose (9:1, v/v) was used to isolate platelets as previously described (Serhan, C. N. and Sheppard, K.-A. (1990) J. Clin. Invest. 85:772). PLD activity. Human PMN and HL-60 cells (50×10^6 cells/ml) prepared as above were incubated with ^3H-myristic acid or ^3H-palmitic acid (8 μCi/50×10^6 cells) for 40-60 min at 37° C. in PBS. […] Incubations were carried out at 37° C. (10 ×10^6 cells/ml PBS). […] M. et al. (1989) J. Biol. Chem. 264:17069. At indicated times, incubations were stopped by adding 3.5 ml of ice cold CHCl3/MeOH (2/5, v/v) containing 1-^14C-arachidonic acid (5,000 cpm) used here as internal standard to quantitate extraction recoveries. Samples were extracted using a modified Bligh and Dyer extraction as in (Serhan, C. N. and Sheppard, K. -A. (1990) J. Clin. Invest. 85:772). Organic phases, concentrated in 50 μL of CHCl3/MeOH (8/2, v/v), were spotted onto linear […] TLC plates developed with the organic phase of ethyl acetate[…][…] (110/50/20/100, v/v/v/v) for 50 min ([…]. et al.(1989) J. Biol. Chem. 264:17069). […] Regions corresponding to PA, PEt, and internal standards were scraped and quantified by liquid scintillation counting. […] In these experiments, PA was resolved using ethyl acetate[…][…]) as solvent system ([…]. et al. (1989) Anal. […] Impact of IAP and staurosporine on LXA4-induced PLD activity. PLD activity assays, performed as described (vide supra), were preceded by cell exposure to either IAP or staurosporine. […]

With `CCCCC[C@H](O)/C=C/C=C\C=C\C=C\[C@@H](O)[C@@H](O)CCCC(=O)O` [LXA4, (5S, 6R, 15S)-trihydroxy-7E, 9E, 11Z, 13E-eicosatetraenoic acid] the LXA4 converted [1] was > 60%, the “competition with 3H-LTB4 (0.3 nM) binding” value [2] was “unable to compete” and the “concentration of second peak of activity, PEt formation” value [3] was 10^−7 M.
